Source: US20140142170A1, “COMPOSITION AND METHOD FOR INFLUENCING ENERGY METABOLISM AND TREATING METABOLIC AND OTHER DISORDERS” (SIRTUIN VALLEY OY, priority 2010, published 2014)
“Also recorded” adds a separate entry of the source.

What was measured:
PGC-1α = PGC-1α protein expression, immunoblot and densitometry in 3T3 L1 preadipocytes; assay type: cell-based; conditions: 60 μM, 24 hours; for PGC-1α protein expression, Derivative vs. GR24: derivative compared to GR24 (=100%)
Method: 3T3L1 cells were purchased from American Type Culture Collection (Manassas, Va., USA) and cultured in DMEM media containing 4.5 g/l glucose supplemented with 10% fetal bovine serum (Hyclone), 2 mM L-glutamine (Gibco), 100 U/ml penicillin, and 100 μg/ml streptomycin (Gibco). The cells were cultured at 37° C. in a humidified atmosphere with 10% CO2. […]
(§1) Protein concentrations were measured using a BCA (bicinchoninic acid) protein assay kit (Cat.#23225; Pierce, Rockford, Ill.). Twenty (20) μg/lane of total cellular protein samples containing NuPAGE LDS sample buffer (Invitrogen) and reducing agent were loaded into 4-12% NuPAGE Bis-Tris gels (Invitrogen), subjected to gel electrophoresis, and transferred to polyvinylidene fluoride membranes (Amersham). For SIRT1 proteins, membranes were blocked in 0.05% TBS-Tween with 3% milk for 1 hour, incubated overnight at +4° C. with SIRT1 primary antibodies (Cat.#07-131, Millipore). For phospho-AMPKα and AMPKα proteins, blocking was done for 1 hour in 0.1% TBS-Tween with 5% milk. The membranes were incubated overnight at +4° C. with phospho-AMPKα (Cat. #2535, Cell Signaling) and AMPKα (Cat.#2532, Cell Signaling) primary antibodies. Horseradish peroxidase-conjugated anti-rabbit antibodies (Cat. #NA934V GE Health Care, Amersham, U.K) were used as secondary antibodies. For α-tubulin (loading control), membranes were blocked in 0.05% PBS-Tween with 3% milk for 1 hour, incubated with α-tubulin (Cat.# B-5-1-2, Sigma) primary antibodies for 1 hour at room temperature and horseradish peroxidase-conjugated anti-mouse (Cat. # NA 931V GE Health Care, Amersham, U.K.) IgG antibodies were used as secondary antibodies.
(§2) The membranes were developed using chemiluminescence (ECL plus, GE Health Care), and images were captured in an Image Quant RT-ECL machine (version 1.0.1; GE Health Care). Densitometry and quantification of the bands were done by applying Quantity One software (Bio-Rad). The expression levels of the proteins were normalized to α-tubulin protein levels.
PGC-1α as an indicator of SIRT1 activity: PGC-1α has been extensively described as a master regulator of mitochondrial biogenesis. […] When SIRT1 protein expression is induced, it interacts with and deacetylates PGC-1α in an NAD-dependent manner. Thus SIRT1 acts as a modulator of PGC-1a (Rodgers J T et al, Nature 2005). The effects of resveratrol, a nonselective SIRT1 activator, were associated with an induction of genes for oxidative phosphorylation and mitochondrial biogenesis, and were largely explained by a resveratrol-mediated decrease in PGC-1α acetylation and an increase in PGC-1α activity (Lagouge M, Cell 2006). Therefore, PGC-1α protein expression serves as an indicator of SIRT1 activity.
3T3L1 cells were purchased from American Type Culture Collection (Manassas, Va., USA) and cultured in DMEM media containing 4.5 g/l glucose supplemented with 10% fetal bovine serum (Hyclone), 2 mM L-glutamine (Gibco) and 100 U/ml penicillin, 100 μg/ml streptomycin (Gibco). The cells were cultured at 37° C. in a humidified atmosphere with 10% CO2. 3T3L1 preadipocytes were plated at 1×10^5 cells/well in 6 well plates and incubated at 37° C. in a humidified atmosphere with 10% CO2. The media was removed after 24 hours and the cells were treated with 60 μM GR24 or with 60 μM 1A, 1B, 5A, 5B, 6A, or 7A and incubated for 24 hours at 37° C. in a humidified atmosphere with 10% CO2. In all experiments, the controls were treated with the same volume of DMSO as was used to dissolve compounds in compound-treated cells to show and ensure that the actual change in protein expression in different treatments was only due to the compounds […]. The media was removed, cells were washed with PBS and cell lysates were collected on ice. Proteins were extracted using RIPA buffer along with protease and phosphatase inhibitors. Lysates were centrifuged for 30 min at high speed; supernatant was collected and stored at −70° C. until further analysis.

SIRT1 [1] = assay: SIRT1 protein expression, immunoblot and densitometry in 3T3 L1 preadipocytes; assay type: cell-based; conditions: 3T3 L1 preadipocytes, 60 μM, 24 hours; for SIRT1 protein expression, Derivative vs. GR24: derivative compared to GR24 (=100%)
Method: (§3) 3T3L1 cells were purchased from American Type Culture Collection (Manassas, Va., USA) and cultured in DMEM media containing 4.5 g/l glucose supplemented with 10% fetal bovine serum (Hyclone), 2 mM L-glutamine (Gibco), 100 U/ml penicillin, and 100 μg/ml streptomycin (Gibco). The cells were cultured at 37° C. in a humidified atmosphere with 10% CO2.
(§4) The 3T3L1 cells were plated at 6×10^4 cells/well in 12 well plates and incubated at 37° C. in a humidified atmosphere with 10% CO2. The media was removed after 24 hours and the cells were treated with 60 μM GR24 individually and in combination with 60 resveratrol and 60 μM pinosylvin, and incubated for 24 hours at 37° C. in a humidified atmosphere with 10% CO2. The media was removed, cells were washed with PBS, and cell lysates were collected on ice. Proteins were extracted using RIPA buffer along with protease and phosphatase inhibitors. Lysates were centrifuged for 30 min at high speed; supernatant was collected and stored at […] until further analysis. The vehicle controls were 3T3 L1 cells without any treatment with drugs or other compounds. The drugs or compounds that were used in all the experiments were dissolved or diluted in dimethylsulfoxide (DMSO) as diluent. In all experiments, the controls were treated with the same volume of DMSO as was used to dissolve drugs or compounds in compound-treated cells to show and ensure that the actual change in protein expression in different treatments was due solely to the compounds or combination of compounds and not to the DMSO.
as §1, §2
3T3L1 cells were purchased from American Type Culture Collection (Manassas, Va., USA) and cultured in DMEM media containing 4.5 g/l glucose supplemented with 10% fetal bovine serum (Hyclone), 2 mM L-glutamine (Gibco) and 100 U/ml penicillin, 100 μg/ml streptomycin (Gibco). The cells were cultured at 37° C. in a humidified atmosphere with 10% CO2. 3T3L1 preadipocytes were plated at 1×10^5 cells/well in 6 well plates and incubated at 37° C. in a humidified atmosphere with 10% CO2. […] In all experiments, the controls were treated with the same volume of DMSO as was used to dissolve compounds in compound-treated cells to show and ensure that the actual change in protein expression in different treatments was only due to the compounds DMSO. […]

phospho-ACC = phospho-ACC expression, immunoblot in 3T3 L1 preadipocytes; assay type: cell-based; conditions: 3T3 L1 preadipocytes, 60 μM, 24 hours
phospho-AMPK = phospho-AMPK expression / AMPK activation, immunoblot in 3T3 L1 preadipocytes; assay type: cell-based; conditions: 3T3 L1 preadipocytes, 60 μM, 24 hours
Method: as §3
as §4, with “The media was removed after 24 hours and the cells were treated with 60 μM GR24 individually and in combination with 60 resveratrol and 60 μM pinosylvin, and incubated for 24 hours at 37° C. in a humidified atmosphere with 10% CO2.” left out
as §1, §2

[2] = test system: mitochondria of 3T3L1 preadipocytes; assay: Mitochondrial staining with MitoTracker green, confocal microscopy; assay type: cell-based; conditions: 60 μM, 24 hours
Method: The 3T3L1 preadipocytes were plated onto Ibidi u-slide 8 well plates at 1.6×10^4 cells/well and incubated at 37° C. in a humidified atmosphere with 10% CO2. The media was removed after 24 hours, the cells were treated with 60 μM GR24 and incubated for 24 hours at 37° C. in a humidified atmosphere with 10% CO2. After 24 hours of treatment, staining of mitochondria was done using 200 nM MitoTracker Mitochondrion-Selective Probes (Green FM probes Cat.#M7514, Invitrogen) according to the manufacturer's instructions. The cells were observed using a confocal microscope and images were taken at 40× oil immersion.
Preadipocytes were treated with DMSO (Vehicle control) (FIG. 5A), 60 μM resveratrol (FIG. 5B) or 60 μM strigolactone analog GR24 (FIG. 5C) for 24 hours. Next, preadipocytes were stained with MitoTracker green and observed under a confocal microscope at 40× oil immersion. […] The white oval shaped structures are nucleus and the white thread-like structures around the nucleus in the cytoplasm are mitochondria. When compared to the control, there was an increase in mitochondrial biogenesis represented by elongated mitochondria, and an increase in mitochondrial activation represented by the intensity of fluorescence, in cells treated with resveratrol and GR24. […] Thus, GR24 enhances both biogenesis and activity of mitochondria, which is necessary to generate ATP.

SIRT1 [3] = target: T1, SIRT1 (Mus musculus, UniProt Q923E4); conditions: mice; cited from earlier work
T1 construct: host or cells: mice (in vivo)
T1 sequence (Q923E4 1-737): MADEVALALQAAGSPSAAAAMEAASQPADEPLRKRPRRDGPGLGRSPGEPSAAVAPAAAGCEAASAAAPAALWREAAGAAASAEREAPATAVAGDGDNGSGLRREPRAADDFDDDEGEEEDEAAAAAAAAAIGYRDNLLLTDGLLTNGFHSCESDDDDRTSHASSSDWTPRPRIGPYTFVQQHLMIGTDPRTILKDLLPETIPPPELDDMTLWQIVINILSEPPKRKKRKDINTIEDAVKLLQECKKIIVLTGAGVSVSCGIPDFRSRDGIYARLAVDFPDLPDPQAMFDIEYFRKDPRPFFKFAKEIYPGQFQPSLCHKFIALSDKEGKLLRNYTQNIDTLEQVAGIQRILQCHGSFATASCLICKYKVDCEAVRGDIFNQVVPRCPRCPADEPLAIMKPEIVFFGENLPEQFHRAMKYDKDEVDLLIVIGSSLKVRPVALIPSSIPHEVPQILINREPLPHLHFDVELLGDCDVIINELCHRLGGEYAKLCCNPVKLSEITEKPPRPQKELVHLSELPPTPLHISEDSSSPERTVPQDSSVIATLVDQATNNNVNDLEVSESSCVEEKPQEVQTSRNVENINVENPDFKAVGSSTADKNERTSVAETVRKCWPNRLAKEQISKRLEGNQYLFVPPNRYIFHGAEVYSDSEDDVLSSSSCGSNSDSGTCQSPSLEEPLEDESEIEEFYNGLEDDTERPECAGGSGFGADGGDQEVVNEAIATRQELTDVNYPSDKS

| SMILES | PGC-1α protein expression compared to control (100%) (PGC-1α) | PGC-1α protein expression, Derivative vs. GR24 (PGC-1α) | SIRT1 protein expression compared to control (100%) (SIRT1 [1]) | SIRT1 protein expression, Derivative vs. GR24 (SIRT1 [1]) | phospho-ACC expression (phosphorylation of ACC) compared to control (phospho-ACC) | phospho-AMPK expression compared to control (phospho-AMPK) | mitochondrial activation (intensity of fluorescence) compared to control [2] | mitochondrial biogenesis (elongated mitochondria) compared to control [2] | SIRT1 activity (SIRT1 [3]) | genes responsible for mitochondrial biogenesis (SIRT1 [3]) |
| --- | --- | --- | --- | --- | --- | --- | --- | --- | --- | --- |
| CC1=C[C@H](O/C=C2/C(=O)O[C@H]3c4c(C)cccc4C[C@@H]23)OC1=O [Compound 5B] | 5B 327% | +48% | 5B 327% | +48% | – | – | – | – | – | – |
| Oc1ccc(/C=C/c2cc(O)cc(O)c2)cc1 [resveratrol, 3,5,4″-trans-trihydroxystilbene] | – | – | – | – | no change | significant increase; also recorded: increased | increase | increase | increases | stimulates |
| COc1cccc2c1[C@H]1OC(=O)/C(=C/O[C@H]3C=C(C)C(=O)O3)[C@H]1C2 [Compound 6A] | 6A 206% | +38% | 6A 206% | +38% | – | – | – | – | – | – |
| CCC1=C[C@H](O/C=C2/C(=O)O[C@H]3c4ccccc4C[C@@H]23)OC1=O [Compound 1B] | 1B 215% | +31% | 1B 215% | +31% | – | – | – | – | – | – |
| COc1ccc(C)c2c1C[C@@H]1/C(=C\O[C@H]3C=C(C)C(=O)O3)C(=O)O[C@H]21 [Compound 7A] | 7A 218% | +30% | 7A 218% | +30% | – | – | – | – | – | – |
| CCC1=C[C@H](O/C=C2/C(=O)O[C@@H]3c4ccccc4C[C@H]23)OC1=O [Compound 1A] | 1A 186% | +11% | 1A 186% | +11% | – | – | – | – | – | – |
